Measurements as given in PubChem BioAssay AID1963856 (Molecular Pharmacology Branch, DTP, NCI, 2024).

Tested on: LG0567-F671-PDC KRAS tumor spheroid viability
Experiment: Anticancer human tumor LG0567-F671-PDC patient-derived lung adenocarcinoma cell line growth inhibition [KRAS2]
Conditions: spheroids with HUVEC and MSC; for viability, T/C: stronger effect = lower value; active = viability on the fitted dose curve at most 10% of control; inactive = the rest
Summary of the method: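 KRAS-mutant tumor cells were grown as spheroids with HUVEC endothelial cells and human MSCs as stroma. Targeted agents were tested alone and with KRAS pathway inhibitors. Doses started at or near clinical Cmax, or 10 microM, descending half-log.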

[1] = curve of first compound, second compound 0.1 µM
[2] = curve of first compound, second compound 0.316 µM
[3] = curve of first compound, second compound 1 µM
[4] = curve of first compound, second compound 3.16 µM
[5] = curve of first compound, second compound 10 µM
[6] = second compound 0.1 µM, first compound 0.0316 µM
[7] = second compound 0.1 µM, first compound 0.1 µM
[8] = second compound 0.1 µM, first compound 0.316 µM
[9] = second compound 0.1 µM, first compound 1 µM
[10] = second compound 0.1 µM, first compound 3.16 µM
[11] = second compound 0.316 µM, first compound 0.0316 µM
[12] = second compound 0.316 µM, first compound 0.1 µM
[13] = second compound 0.316 µM, first compound 0.316 µM
[14] = second compound 0.316 µM, first compound 1 µM
[15] = second compound 0.316 µM, first compound 3.16 µM
[16] = second compound 1 µM, first compound 0.0316 µM
[17] = second compound 1 µM, first compound 0.1 µM
[18] = second compound 1 µM, first compound 0.316 µM
[19] = second compound 1 µM, first compound 1 µM
[20] = second compound 1 µM, first compound 3.16 µM
[21] = second compound 3.16 µM, first compound 0.0316 µM
[22] = second compound 3.16 µM, first compound 0.1 µM
[23] = second compound 3.16 µM, first compound 0.316 µM
[24] = second compound 3.16 µM, first compound 1 µM
[25] = second compound 3.16 µM, first compound 3.16 µM
[26] = second compound 10 µM, first compound 0.0316 µM
[27] = second compound 10 µM, first compound 0.1 µM
[28] = second compound 10 µM, first compound 0.316 µM
[29] = second compound 10 µM, first compound 1 µM
[30] = second compound 10 µM, first compound 3.16 µM
[31] = compound alone, run of 07/19/2021
[32] = compound alone, run of 07/26/2021
[33] = second compound 0.1 µM, first compound 0.01 µM
[34] = second compound 0.316 µM, first compound 0.01 µM
[35] = second compound 1 µM, first compound 0.01 µM
[36] = second compound 3.16 µM, first compound 0.01 µM
[37] = second compound 10 µM, first compound 0.01 µM
[38] = second compound 0.1 µM, first compound 0.000316 µM
[39] = second compound 0.1 µM, first compound 0.001 µM
[40] = second compound 0.1 µM, first compound 0.00316 µM
[41] = second compound 0.316 µM, first compound 0.000316 µM
[42] = second compound 0.316 µM, first compound 0.001 µM
[43] = second compound 0.316 µM, first compound 0.00316 µM
[44] = second compound 1 µM, first compound 0.000316 µM
[45] = second compound 1 µM, first compound 0.001 µM
[46] = second compound 1 µM, first compound 0.00316 µM
[47] = second compound 3.16 µM, first compound 0.000316 µM
[48] = second compound 3.16 µM, first compound 0.001 µM
[49] = second compound 3.16 µM, first compound 0.00316 µM
[50] = second compound 10 µM, first compound 0.000316 µM
[51] = second compound 10 µM, first compound 0.001 µM
[52] = second compound 10 µM, first compound 0.00316 µM
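Also: drug exposure lasted seven days after spheroids formed for three days.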
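For viability, T/C in this document: 100% = DMSO vehicle control viability.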

COc1cc(Nc2ncc3c(n2)-c2ccc(Cl)cc2C(c2c(F)cccc2OC)=NC3)ccc1C(=O)O + COc1cc2nc(C)nc(NC(C)c3cc(N)cc(C(F)(F)F)c3)c2cc1OC1CCOC1
2450 nM: IC50 [1]
inactive: viability, T/C [6] 64.3% | viability, T/C [7] 59.9% | viability, T/C [8] 60.9% | viability, T/C [9] 55.1% | viability, T/C [10] 48.9% | viability, T/C (second compound 0.1 µM, first compound 10 µM) 36% | viability, T/C [11] 46.6% | viability, T/C [12] 50.2% | viability, T/C [13] 43.3% | viability, T/C [14] 47.1% | viability, T/C [15] 36% | viability, T/C (second compound 0.316 µM, first compound 10 µM) 28.2% | viability, T/C [16] 48.3% | viability, T/C [17] 53.7% | viability, T/C [18] 49.5% | viability, T/C [19] 44.5% | viability, T/C [20] 37.9% | viability, T/C (second compound 1 µM, first compound 10 µM) 28.8% | viability, T/C [21] 40% | viability, T/C [22] 44.4% | viability, T/C [23] 46.1% | viability, T/C [24] 36.9% | viability, T/C [25] 32.7% | viability, T/C (second compound 3.16 µM, first compound 10 µM) 23.6% | viability, T/C [26] 40.2% | viability, T/C [27] 37.8% | viability, T/C [28] 37.7% | viability, T/C [29] 33.1% | viability, T/C [30] 27.6% | viability, T/C (second compound 10 µM, first compound 10 µM) 18.9%
169 nM: IC50 [3]
< 31.6 nM: IC50 [2] | IC50 [4] | IC50 [5]

CNCc1ccccc1-c1csc(C(C)Nc2nc(C)nc3cc(OC)c(OC)cc23)c1 (stereo unspecified)
active: viability, T/C (compound 10 µM) 0.63% [middle of 16 runs]
4.92 µM [middle of 6 runs]: IC50 [32]
1.25 µM [middle of 5 runs]: IC50 [31]

CC(=O)OC12COC1CC(O)C1(C)C(=O)C(O)C3=C(C)C(OC(=O)C(O)C(NC(=O)OC(C)(C)C)c4ccccc4)CC(O)(C(OC(=O)c4ccccc4)C21)C3(C)C (stereo unspecified) + C=CC(=O)N1CCN(c2nc(=O)n(-c3c(C)ccnc3C(C)C)c3nc(-c4c(O)cccc4F)c(F)cc23)C(C)C1
inactive: viability, T/C [33] 13.4% | viability, T/C [6] 14.2% | viability, T/C [7] 14.2% | viability, T/C [8] 14.9% | viability, T/C [9] 18.2% | viability, T/C [10] 13.5% | viability, T/C [34] 13.7% | viability, T/C [11] 12% | viability, T/C [12] 12.1% | viability, T/C [13] 12.3% | viability, T/C [14] 16.3% | viability, T/C [15] 12.7% | viability, T/C [35] 12.6% | viability, T/C [16] 10.2% | viability, T/C [17] 10.1% | viability, T/C [18] 12% | viability, T/C [19] 12.8% | viability, T/C [20] 10.6% | viability, T/C [36] 10.7% | viability, T/C [21] 9.62% | viability, T/C [22] 9.62% | viability, T/C [23] 9.52% | viability, T/C [24] 13.2% | viability, T/C [25] 10.1% | viability, T/C [37] 13.7% | viability, T/C [26] 14% | viability, T/C [27] 15.6% | viability, T/C [28] 14.4% | viability, T/C [29] 14.5% | viability, T/C [30] 12.1%
< 10 nM: IC50 [1] | IC50 [2] | IC50 [3] | IC50 [4] | IC50 [5]

Cn1ncnc1[C@H]1c2n[nH]c(=O)c3cc(F)cc(c23)N[C@@H]1c1ccc(F)cc1 + C=CC(=O)N1CCN(c2nc(=O)n(-c3c(C)ccnc3C(C)C)c3nc(-c4c(O)cccc4F)c(F)cc23)C(C)C1
< 0.316 nM: IC50 [1] | IC50 [2] | IC50 [3] | IC50 [4] | IC50 [5]
inactive: viability, T/C [38] 24.7% | viability, T/C [39] 27.1% | viability, T/C [40] 21.8% | viability, T/C [33] 21.3% | viability, T/C [6] 23.8% | viability, T/C [7] 24.4% | viability, T/C [41] 25.5% | viability, T/C [42] 26.2% | viability, T/C [43] 23.1% | viability, T/C [34] 20.8% | viability, T/C [11] 24.1% | viability, T/C [12] 21.6% | viability, T/C [44] 29.7% | viability, T/C [45] 27.1% | viability, T/C [46] 27.1% | viability, T/C [35] 20.9% | viability, T/C [16] 23.6% | viability, T/C [17] 22.8% | viability, T/C [47] 24.8% | viability, T/C [48] 25.9% | viability, T/C [49] 25.2% | viability, T/C [36] 25.5% | viability, T/C [21] 23.4% | viability, T/C [22] 21.1% | viability, T/C [50] 21.9% | viability, T/C [51] 23.5% | viability, T/C [52] 24.6% | viability, T/C [37] 20.2% | viability, T/C [26] 19.6% | viability, T/C [27] 20.1%

C=CC(=O)N1CCN(c2nc(=O)n(-c3c(C)ccnc3C(C)C)c3nc(-c4c(O)cccc4F)c(F)cc23)C(C)C1 (stereo unspecified)
inactive: viability, T/C (compound 0.1 µM) 25.5% [middle of 17 runs] | viability, T/C (compound 0.316 µM) 23.7% [middle of 17 runs] | viability, T/C (compound 1 µM) 25.1% [middle of 17 runs] | viability, T/C (compound 3.16 µM) 24.4% [middle of 17 runs] | viability, T/C (compound 10 µM) 23.8% [middle of 17 runs]
< 100 nM: IC50 (compound alone, run of 07/12/2021) | IC50 [31] | IC50 [32]

CN(C)C/C=C/C(=O)Nc1cc2c(Nc3ccc(F)c(Cl)c3)ncnc2cc1O[C@H]1CCOC1 + CNCc1ccccc1-c1csc(C(C)Nc2nc(C)nc3cc(OC)c(OC)cc23)c1
6.76 nM: IC50 [3]
inactive: viability, T/C [38] 88% | viability, T/C [39] 71.5% | viability, T/C [40] 65.5% | viability, T/C [33] 49% | viability, T/C [6] 46.9% | viability, T/C [7] 51.3% | viability, T/C [41] 77.9% | viability, T/C [42] 72.8% | viability, T/C [43] 59.7% | viability, T/C [34] 52% | viability, T/C [11] 43.5% | viability, T/C [12] 53.1% | viability, T/C [44] 54.7% | viability, T/C [45] 61.3% | viability, T/C [46] 49.4% | viability, T/C [35] 48.2% | viability, T/C [16] 44.2% | viability, T/C [17] 37.4% | viability, T/C [47] 54.9% | viability, T/C [48] 31.7%
< 0.316 nM: IC50 [5]
0.404 nM: IC50 [4]
active: viability, T/C [49] 0.31% | viability, T/C [36] 0.13% | viability, T/C [21] 0.63% | viability, T/C [22] 0.28% | viability, T/C [50] 0.28% | viability, T/C [51] 0.22% | viability, T/C [52] 0.1% | viability, T/C [37] 0.38% | viability, T/C [26] 1.14% | viability, T/C [27] 0.66%
24.8 nM: IC50 [1]
17.1 nM: IC50 [2]
